Assay results: patent US6706736B2, “Antidepressant azaheterocyclylmethyl derivatives of oxaheterocycle-fused-[1,4]-benzodioxans” (Wyeth, priority 2001, dated 2004)
Counter-ions that a name gives are not always drawn. Like-named read-outs stand apart in the source and are kept apart here.

Key:
[1] = biological target: T1, serotonin transporter (Rattus norvegicus, UniProt P31652); assay: 3H-paroxetine displacement from rat frontal cortical membranes (serotonin transporter affinity); format: binding
T1 construct: displace ^3H-paroxetine from male rat frontal cortical membranes; from tissue; host or cells: male rat frontal cortex membranes

[2] = biological target: T2, human 5-HT1A receptors (Homo sapiens, UniProt P08908); assay: [3H] 8-OHDPAT displacement from 5-HT1A receptor in transfected CHO cells; format: binding
T2 construct: expressed in transfected cells; host or cells: CHO cells (stably transfected)
T2 sequence (P08908 1-422): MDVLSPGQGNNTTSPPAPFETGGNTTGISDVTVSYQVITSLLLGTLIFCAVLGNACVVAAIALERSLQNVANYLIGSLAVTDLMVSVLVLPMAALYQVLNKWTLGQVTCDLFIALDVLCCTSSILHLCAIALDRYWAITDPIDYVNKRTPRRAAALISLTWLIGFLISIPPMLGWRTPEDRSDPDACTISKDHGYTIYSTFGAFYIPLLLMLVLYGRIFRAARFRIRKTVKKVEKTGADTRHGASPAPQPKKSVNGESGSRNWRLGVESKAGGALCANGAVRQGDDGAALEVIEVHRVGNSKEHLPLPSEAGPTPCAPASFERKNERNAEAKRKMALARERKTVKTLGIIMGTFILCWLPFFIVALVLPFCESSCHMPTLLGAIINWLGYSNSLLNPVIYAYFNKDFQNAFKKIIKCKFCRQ
Source text: High affinity for the serotonin 5-HT1A receptor was established by testing the claimed compound's ability to displace [^3H] 8-OHDPAT (dipropylaminotetralin) from the 5-HT1A serotonin receptor following a modification of the procedure of Hall et al., J. Neurochem. 44, 1685 (1985) which utilizes CHO cells stably transfected with human 5-HT1A receptors.

[3] = biological target: T3, cloned human 5-HT1A receptors (Homo sapiens, UniProt P08908); assay: 35S-GTPγS binding assay, antagonist activity at 5-HT1A receptors; format: biochemical; conditions: reversal of standard agonist 8-OHDPAT; for IC50: read-out: 5-HT1A Function IC50; for 5-HT1A Function Imax (maximum inhibitory effect): value in parentheses
T3 construct: expressed in transfected cells
T3 sequence (P08908 1-422): T2 sequence (P08908 1-422)
Protocol: Antagonist activity at 5-HT1A receptors was established by using a ^35S-GTPγS binding assay similar to that used by Lazareno and Birdsall (Br. J. Pharmacol. 109: 1120, 1993), in which the test compound's ability to affect the binding of ^35S-GTPγS to membranes containing cloned human 5-HT1A receptors was determined. Agonists produce an increase in binding whereas antagonists produce no increase but rather reverse the effects of the standard agonist 8-OHDPAT. The test compound's maximum inhibitory effect is represented as the Imax, while its potency is defined by the IC50.

[4] = 3H-paroxetine, male rat frontal cortical membranes, read-out: 5-HT Transporter Affinity KI

T1 sequence (P31652 whole entry): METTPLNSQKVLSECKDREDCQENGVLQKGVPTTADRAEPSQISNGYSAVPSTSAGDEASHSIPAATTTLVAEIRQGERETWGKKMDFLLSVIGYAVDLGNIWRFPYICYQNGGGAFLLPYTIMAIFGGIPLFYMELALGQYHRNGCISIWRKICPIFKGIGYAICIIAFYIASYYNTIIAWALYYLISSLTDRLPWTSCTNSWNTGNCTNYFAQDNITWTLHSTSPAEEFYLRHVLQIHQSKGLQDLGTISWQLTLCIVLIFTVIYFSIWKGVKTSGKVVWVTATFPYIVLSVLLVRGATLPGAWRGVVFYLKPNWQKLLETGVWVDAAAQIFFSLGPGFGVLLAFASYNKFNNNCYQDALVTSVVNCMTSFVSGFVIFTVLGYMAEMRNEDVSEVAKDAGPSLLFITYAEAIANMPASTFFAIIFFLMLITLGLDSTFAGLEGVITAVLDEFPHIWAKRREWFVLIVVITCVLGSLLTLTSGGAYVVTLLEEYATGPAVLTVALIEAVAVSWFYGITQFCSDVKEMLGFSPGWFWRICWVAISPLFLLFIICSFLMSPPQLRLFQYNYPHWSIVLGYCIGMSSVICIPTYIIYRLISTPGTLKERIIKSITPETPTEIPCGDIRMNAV

Row | Compound | Ki [1] [nM] | Ki [2] [nM] | IC50 [3] [nM] | 5-HT1A Function Imax (maximum inhibitory effect) [3] | melting point [°C] | Ki [1, 4] [nM]
1 | C1=C(c2c[nH]c3ccccc23)CCN(CC2COc3ccc4c(c3O2)CCCO4)C1 (stereo not shown) [Example 4, 3-{1-[2,3,9,10-Tetrahydro-8H-[1,4]dioxino[2,3-f]chromen-2-ylmethyl]-1,2,3,6-tetrahydro-4-pyridinyl}-1H-indole] | 8.5 | 30.4 | 868 | 100 | 186 to 187 | –
2 | Cc1cc2ccc3c(c2o1)OC(CN1CC=C(c2c[nH]c4ccccc24)CC1)CO3 (stereo not shown) [Example 1] | – | – | – | – | 198 to 200 | –
3 | Cc1cc2c3c(ccc2o1)OC[C@H](CN1CC=C(c2c[nH]c4ccccc24)CC1)O3 [Example 1] | – | 14.1 | 241 | 62.0 | – | 185
4 | C1=C(c2c[nH]c3ccccc23)CCN(CC2COc3ccc4occc4c3O2)C1 (stereo not shown) [Example 3, 3-{1-[2,3-Dihydrofuro[3,2-f][1,4]benzodioxin-2-ylmethyl]-1,2,3,6-tetrahydropyridin-4-yl}-1H-indole] | – | 19.6 | 19 | 61.0 | 208 to 209 | 115
5 | Fc1ccc2[nH]cc(C3=CCN(CC4COc5ccc6c(c5O4)CCCO6)CC3)c2c1 (stereo not shown) [Example 5, 5-Fluoro-3-{1-[2,3,9,10-tetrahydro-8H-[1,4]dioxino[2,3-f]chromen-2-ylmethyl]-1,2,3,6-tetrahydro-4-pyridinyl}-1H-indole] | 10 | 29.4 | 347 | 100 | – | –
6 | Fc1ccc2[nH]cc(C3=CCN(CC4COc5ccc6c(c5O4)CCCO6)CC3)c2c1 (stereo not shown) (as salt: salt) [Example 5, 5-Fluoro-3-{1-[2,3,9,10-tetrahydro-8H-[1,4]dioxino[2,3-f]chromen-2-ylmethyl]-1,2,3,6-tetrahydro-4-pyridinyl}-1H-indole] | – | – | – | – | 205 to 206 | –
7 | C1=C(c2c[nH]c3ccccc23)CCN(CC2COc3ccc4c(c3O2)CCO4)C1 (stereo not shown) [Example 2, 3-{1-[2,3,8,9-Tetrahydrofuro[3,2-f][1,4]benzodioxin-2-ylmethyl]-1,2,3,6-tetrahydro-4-pyridinyl}-1H-indole] | 34 | 46 | 264 | 66.0 | 207 to 209 | –
